Measurements: paper PMC11640419, “New Synthetic Analogs of Natural 5Z,9Z-Dienoic Acids—Hybrid Molecules Based on Oleanolic Acid: Synthesis and Study of Antitumor Activity” (Cancers, 2024)

Key:
[1] = Cytotoxicity assay (7-AAD, flow cytometry); assay type: cell-based, human; settings: human, Jurkat cells; Jurkat, 24 h incubation
Experimental: The human cell lines Jurkat, K562, U937, and HEK293 were obtained from the European Collection of Authenticated Cell Cultures (ECACC) and subsequently cultured in accordance with established standard protocols and sterile techniques. […] Subsequently, the cells were seeded into 24-well plates at a density of 5 × 10^4 cells per well and incubated for 12 h (Jurkat, K562, U937) and 24 h (HEK293).
The viability of the cells was evaluated through the utilization of the 7-AAD (7-aminoactinomycin D) dye (eBioscience™, San Diego, CA, USA). Following a 24 h incubation period with the test substances, the cells were washed with phosphate-salt buffer (PBS) and centrifuged at 400× g for five minutes. […] Subsequently, all cell samples were subjected to analysis on a NovoCyte Penteon flow cytometer (Agilent, Santa Clara, CA, USA).

[2] = Cytotoxicity assay (7-AAD, flow cytometry); assay type: cell-based, human; settings: human
Experimental: The human cell lines Jurkat, K562, U937, and HEK293 were obtained from the European Collection of Authenticated Cell Cultures (ECACC) and subsequently cultured in accordance with established standard protocols and sterile techniques. The cells were maintained in RPMI 1640 (for Jurkat, K562, and U937) or DMEM (for HEK293) medium, both of which were supplemented with […], 10% FBS (Sigma, Kanagawa, Japan), and 100 units/mL penicillin-streptomycin (Sigma). Subsequently, the cells were seeded into 24-well plates at a density of 5 × 10^4 cells per well and incubated for 12 h (Jurkat, K562, U937) and 24 h (HEK293).
The viability of the cells was evaluated through the utilization of the 7-AAD (7-aminoactinomycin D) dye (eBioscience™, San Diego, CA, USA). Following a 24 h incubation period with the test substances, the cells were washed with phosphate-salt buffer (PBS) and centrifuged at 400× g for five minutes. The precipitate was resuspended in 200 μL of flow cytometry buffer (PBS without calcium and magnesium, 2.5% FBS) and incubated with a 1 mM 7-AAD dye solution for 15 min in the dark at room temperature. Subsequently, all cell samples were subjected to analysis on a NovoCyte Penteon flow cytometer (Agilent, Santa Clara, CA, USA).

[3] = HEK293 cells, HEK293, 24 h incubation
[4] = K562 cells, K562, 24 h incubation
[5] = U937 cells, U937, 24 h incubation

SMILES	CC50 at 24 h [1]	CC50 at 24 h [2, 3]	CC50 at 24 h [2, 4]	CC50 at 24 h [2, 5]
CC1(C)CC[C@]2(C(=O)NC34CC5CC(CC(C5)C3)C4)CC[C@]3(C)C(=CCC4[C@@]5(C)CC[C@H](O)C(C)(C)C5CC[C@]43C)C2C1 (stereo partly shown) [compound 8c]	115 ± 12.1 µM	414 ± 39.5 µM	94.7 ± 8.68 µM	57.6 ± 6.49 µM
CC1(C)CC[C@]2(C(=O)Nc3ccncc3)CC[C@]3(C)C(=CCC4[C@@]5(C)CC[C@H](OC(=O)CCC/C=C\CC/C=C\CCCC(=O)O)C(C)(C)C5CC[C@]43C)C2C1 (stereo partly shown) [compound 9g]	80.4 ± 7.86 µM	223 ± 21.8 µM	72.1 ± 6.39 µM	61.2 ± 6.48 µM
CC(=O)O[C@H]1CC[C@@]2(C)C(CC[C@]3(C)C2CC=C2C4CC(C)(C)CC[C@]4(C(=O)NC(C)C45CC6CC(CC(C6)C4)C5)CC[C@]23C)C1(C)C (stereo partly shown) [compound 7d]	120 ± 11.8 µM	342 ± 33.8 µM	99.9 ± 9.38 µM	97.1 ± 8.96 µM
CC(=O)O[C@H]1CC[C@@]2(C)C(CC[C@]3(C)C2CC=C2C4CC(C)(C)CC[C@]4(C(=O)Nc4c(C)n(C)n(-c5ccccc5)c4=O)CC[C@]23C)C1(C)C (stereo partly shown) [compound 7b]	86.5 ± 8.46 µM	218 ± 20.7 µM	81.3 ± 7.98 µM	72.2 ± 7.34 µM
CC1(C)CC[C@]2(C(=O)Nc3nccs3)CC[C@]3(C)C(=CCC4[C@@]5(C)CC[C@H](OC(=O)CCC/C=C\CC/C=C\CCCC(=O)O)C(C)(C)C5CC[C@]43C)C2C1 (stereo partly shown) [compound 9f]	96.7 ± 9.18 µM	205 ± 19.7 µM	84.4 ± 8.47 µM	79.7 ± 6.78 µM
CC(=O)O[C@H]1CC[C@@]2(C)C(CC[C@]3(C)C2CC=C2C4CC(C)(C)CC[C@]4(C(=O)NC45CC6CC(CC(C6)C4)C5)CC[C@]23C)C1(C)C (stereo partly shown) [compound 7c]	121 ± 11.8 µM	366 ± 34.7 µM	104 ± 10.6 µM	98.9 ± 9.54 µM
CC1(C)CC[C@]2(C(=O)NCc3cccs3)CC[C@]3(C)C(=CCC4[C@@]5(C)CC[C@H](OC(=O)CCC/C=C\CC/C=C\CCCC(=O)O)C(C)(C)C5CC[C@]43C)C2C1 (stereo partly shown) [compound 9e]	76.3 ± 7.25 µM	195 ± 17.9 µM	69.8 ± 6.99 µM	56.4 ± 5.11 µM
CC1(C)CC[C@]2(C(=O)NCc3cccs3)CC[C@]3(C)C(=CCC4[C@@]5(C)CC[C@H](O)C(C)(C)C5CC[C@]43C)C2C1 (stereo partly shown) [compound 8e]	165 ± 14.2 µM	593 ± 53.9 µM	149 ± 12.6 µM	122 ± 12 µM
CC(=O)O[C@H]1CC[C@@]2(C)C(CC[C@]3(C)C2CC=C2C4CC(C)(C)CC[C@]4(C(=O)Nc4cccc5cccnc45)CC[C@]23C)C1(C)C (stereo partly shown) [compound 7i]	153 ± 13.9 µM	456 ± 42.7 µM	133 ± 12.9 µM	122 ± 12.8 µM
CC(=O)O[C@H]1CC[C@@]2(C)C(CC[C@]3(C)C2CC=C2C4CC(C)(C)CC[C@]4(C(=O)Nc4nccs4)CC[C@]23C)C1(C)C (stereo partly shown) [compound 7f]	152 ± 14.1 µM	494 ± 42.2 µM	144 ± 12.8 µM	132 ± 12.9 µM
Cc1cc(NC(=O)[C@]23CCC(C)(C)CC2C2=CCC4[C@@]5(C)CC[C@H](O)C(C)(C)C5CC[C@@]4(C)[C@]2(C)CC3)no1 (stereo partly shown) [compound 8h]	179 ± 17.1 µM	598 ± 59 µM	161 ± 16.4 µM	155 ± 15.2 µM
CC1(C)CC[C@]2(C(=O)Nc3ccncc3)CC[C@]3(C)C(=CCC4[C@@]5(C)CC[C@H](O)C(C)(C)C5CC[C@]43C)C2C1 (stereo partly shown) [compound 8g]	160 ± 14.3 µM	443 ± 40.3 µM	137 ± 12.4 µM	135 ± 12.8 µM
CC(=O)O[C@H]1CC[C@@]2(C)C(CC[C@]3(C)C2CC=C2C4CC(C)(C)CC[C@]4(C(=O)Nc4ccncc4)CC[C@]23C)C1(C)C (stereo partly shown) [compound 7g]	143 ± 14.3 µM	430 ± 41.9 µM	125 ± 11.9 µM	112 ± 12.3 µM
CC1(C)CC[C@]2(C(=O)Nc3nccs3)CC[C@]3(C)C(=CCC4[C@@]5(C)CC[C@H](O)C(C)(C)C5CC[C@]43C)C2C1 (stereo partly shown) [compound 8f]	189 ± 17.4 µM	611 ± 57.7 µM	168 ± 17.1 µM	157 ± 15 µM
Cc1c(NC(=O)[C@]23CCC(C)(C)CC2C2=CCC4[C@@]5(C)CC[C@H](OC(=O)CCC/C=C\CC/C=C\CCCC(=O)O)C(C)(C)C5CC[C@@]4(C)[C@]2(C)CC3)c(=O)n(-c2ccccc2)n1C (stereo partly shown) [compound 9b]	6.11 ± 0.56 µM	21.4 ± 2.33 µM	5.76 ± 0.69 µM	4.86 ± 0.42 µM
CC(NC(=O)[C@]12CCC(C)(C)CC1C1=CCC3[C@@]4(C)CC[C@H](O)C(C)(C)C4CC[C@@]3(C)[C@]1(C)CC2)C12CC3CC(CC(C3)C1)C2 (stereo partly shown) [compound 8d]	110 ± 11.6 µM	398 ± 37.6 µM	93.8 ± 8.91 µM	58.1 ± 6.26 µM
Cc1c(NC(=O)[C@]23CCC(C)(C)CC2C2=CCC4[C@@]5(C)CC[C@H](O)C(C)(C)C5CC[C@@]4(C)[C@]2(C)CC3)c(=O)n(-c2ccccc2)n1C (stereo partly shown) [compound 8b]	98.7 ± 9.39 µM	267 ± 22.7 µM	94.8 ± 9.57 µM	85.4 ± 8.64 µM
CC(=O)O[C@H]1CC[C@@]2(C)C(CC[C@]3(C)C2CC=C2C4CC(C)(C)CC[C@]4(C(=O)NCc4cccs4)CC[C@]23C)C1(C)C (stereo partly shown) [compound 7e]	131 ± 12.5 µM	438 ± 42.6 µM	125 ± 11.9 µM	108 ± 11 µM
CC1(C)CC[C@]2(C(=O)Nc3cccc4cccnc34)CC[C@]3(C)C(=CCC4[C@@]5(C)CC[C@H](O)C(C)(C)C5CC[C@]43C)C2C1 (stereo partly shown) [compound 8i]	165 ± 14.3 µM	515 ± 40.3 µM	155 ± 12.9 µM	142 ± 12.5 µM
CC(=O)O[C@H]1CC[C@@]2(C)C(CC[C@]3(C)C2CC=C2C4CC(C)(C)CC[C@]4(C(=O)Nc4cc(C)on4)CC[C@]23C)C1(C)C (stereo partly shown) [compound 7h]	146 ± 14 µM	489 ± 44.8 µM	139 ± 12.9 µM	129 ± 11.7 µM
CC1(C)CC[C@]2(C(=O)NC34CC5CC(CC(C5)C3)C4)CC[C@]3(C)C(=CCC4[C@@]5(C)CC[C@H](OC(=O)CCC/C=C\CC/C=C\CCCC(=O)O)C(C)(C)C5CC[C@]43C)C2C1 (stereo partly shown) [compound 9c]	54.4 ± 5.88 µM	167 ± 15.5 µM	49.2 ± 5.01 µM	29.4 ± 3.18 µM
Cn1nccc1NC(=O)[C@]12CCC(C)(C)CC1C1=CCC3[C@@]4(C)CC[C@H](O)C(C)(C)C4CC[C@@]3(C)[C@]1(C)CC2 (stereo partly shown) [compound 8a]	23.8 ± 2.84 µM	110 ± 10.3 µM	20.4 ± 2.11 µM	19.6 ± 1.96 µM
CC1(C)CC[C@]2(C(=O)Nc3cccc4cccnc34)CC[C@]3(C)C(=CCC4[C@@]5(C)CC[C@H](OC(=O)CCC/C=C\CC/C=C\CCCC(=O)O)C(C)(C)C5CC[C@]43C)C2C1 (stereo partly shown) [compound 9i]	84.7 ± 8.21 µM	262 ± 22.7 µM	77.3 ± 6.85 µM	62.9 ± 5.91 µM
Cc1cc(NC(=O)[C@]23CCC(C)(C)CC2C2=CCC4[C@@]5(C)CC[C@H](OC(=O)CCC/C=C\CC/C=C\CCCC(=O)O)C(C)(C)C5CC[C@@]4(C)[C@]2(C)CC3)no1 (stereo partly shown) [compound 9h]	91.2 ± 8.34 µM	213 ± 18.3 µM	81.5 ± 7.62 µM	72.3 ± 6.85 µM
CC1(C)CC[C@]2(C(=O)O)CC[C@]3(C)C(=CC[C@@H]4[C@@]5(C)CC[C@H](O)C(C)(C)[C@@H]5CC[C@]43C)[C@@H]2C1 [Oleanoic acid, Oleanolic acid]	199 ± 18.4 µM	497 ± 39.8 µM	171 ± 16.5 µM	144 ± 14.3 µM
